Each compound was assayed against T1, Tyrosine-protein phosphatase non-receptor type 11 (Homo sapiens, UniProt Q06124) (assay: Assay of Full-Length SHP2 Phosphatase Activity Assay).
T1 sequence (Q06124 whole entry): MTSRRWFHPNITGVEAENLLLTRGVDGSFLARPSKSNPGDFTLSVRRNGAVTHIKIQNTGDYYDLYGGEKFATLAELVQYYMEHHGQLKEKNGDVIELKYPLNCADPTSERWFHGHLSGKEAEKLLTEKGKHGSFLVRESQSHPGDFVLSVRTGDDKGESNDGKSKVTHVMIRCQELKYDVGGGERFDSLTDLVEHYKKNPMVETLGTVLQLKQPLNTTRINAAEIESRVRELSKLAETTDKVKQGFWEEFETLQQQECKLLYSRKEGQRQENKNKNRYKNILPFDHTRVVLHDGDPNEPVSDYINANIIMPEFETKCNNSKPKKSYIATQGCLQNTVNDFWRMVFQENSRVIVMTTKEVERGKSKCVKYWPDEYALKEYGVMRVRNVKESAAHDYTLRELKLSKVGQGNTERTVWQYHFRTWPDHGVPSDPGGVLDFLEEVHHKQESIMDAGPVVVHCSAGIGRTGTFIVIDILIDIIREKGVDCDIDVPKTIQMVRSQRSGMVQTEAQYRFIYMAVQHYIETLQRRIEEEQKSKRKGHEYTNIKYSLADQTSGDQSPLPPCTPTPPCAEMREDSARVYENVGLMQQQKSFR
Protocol: 1. Reagents and MaterialsHuman full-length SHP2 recombinant protein: BPS Bioscience, Cat #79018;SHP2 substrate DiFMUP (1 mM): BPS Bioscience, Cat #79769;SHP2 activating peptide (100 μM): BPS Bioscience, Cat #79319-2;DTT: Merck, Cat #DTT-RO;384-well plate: Corning, Cat #3575;96-well plate: Thermo Fisher Scientific, Cat #249952;Instrument: EnVision 2104, PerkinElmer.2. Preparation of Reaction SolutionsThe test compound was dissolved in DMSO and diluted with DMSO to 100.0 μM, and the compound was further 3-fold diluted with DMSO to: 100.00, 33.33, 11.11, 3.70, 1.23, 0.41, 0.14 and 0.05 μM.
For `C#Cc1ccc2c(c1)[C@@H](N)C1(CCN(c3cc(=O)n(-c4ccc(F)c(F)c4Cl)c(C)n3)CC1)C2` (atropisomer, axis not shown) [US20240140931, Compound 113], the IC50 was 5 nM. Work on `C#Cc1ccc2c(c1)[C@@H](N)C1(CCN(c3cc(=O)n(-c4cc(OC)ccc4Cl)c(C)n3)CC1)C2` [US20240140931, Compound 44] yielded an IC50 of 13 nM. With `Cc1nc(N2CCC3(CC2)Cc2ccc(C#CCN(C)C)cc2[C@H]3N)cc(=O)n1-c1cccc(Cl)c1Cl` [US20240140931, Compound 52] the IC50 was < 0.5 nM. In the case of `Cc1nc(N2CCC3(CC2)Cc2ccc(SC4COC4)cc2[C@H]3N)cc(=O)n1-c1cccc(Cl)c1Cl` [US20240140931, Compound 81], the IC50 is reported as 2 nM. `C#Cc1ccc2c(c1)[C@@H](N)C1(CCN(c3cc(=O)n(-c4cccc(C#N)c4Cl)c(C)n3)CC1)C2` [US20240140931, Compound 267] was tested, and the IC50 was > 100 nM. Compound `C#Cc1ccc2c(c1)[C@@H](N)C1(CCN(c3cc(=O)n(-c4cccc(C#N)c4Cl)c(C)n3)CC1)C2` [US20240140931, Compound 268] has an IC50 of 1 nM.

Reference: BindingDB's records for patent US20240140931 (Hutchmed, 2024)
